Assay results: patent publication EP3820512B1, “IMMUNOMODULATING COMPOSITIONS COMPRISING OLIGOSACCHARIDE DERIVATIVES” (priority 2018, dated 2020)

Tests used:
TLR4 = TLR4 (Homo sapiens, UniProt O00206); assay: TLR4 inhibitory and activating activity in THP-1 cells at low and high concentrations; assay type: cell-based; design: endogenous in cells; host or cells: THP-1 (human monocytic) cells
[1] = test system: normal lung epithelial cells (AT-1); assay type: cell-based, human; conditions: 1 mM and 2 mM, 48h, trypan blue
Protocol: The cells were treated with compounds and incubated for 48h.

[2] = test system: THP-1 (human monocytic) cells; assay: Cytokine response (IL-1β, TNF-α, IL-10) of THP-1 cells treated with compounds; assay type: cell-based; conditions: 100-200 µM
Protocol: When THP-1 (human monocytic) cells were treated with 100-200 µM of compounds 8, 14, 17, 23, 29, and 32, they produced an increased IL-1β and TNF-α response, decreased anti-inflammatory cytokine IL-10 (FIG. 4).

TLR2 = molecular target: T1, TLR2 (Homo sapiens, UniProt O60603); assay: TLR2 activity in PMA-stimulated THP-1 monocyte cells, ELISA of cell lysate; assay type: cell-based; conditions: THP-1 cells
T1 construct: endogenous in cells; host or cells: THP-1 monocyte cells stimulated with PMA
T1 sequence (O60603 21-784): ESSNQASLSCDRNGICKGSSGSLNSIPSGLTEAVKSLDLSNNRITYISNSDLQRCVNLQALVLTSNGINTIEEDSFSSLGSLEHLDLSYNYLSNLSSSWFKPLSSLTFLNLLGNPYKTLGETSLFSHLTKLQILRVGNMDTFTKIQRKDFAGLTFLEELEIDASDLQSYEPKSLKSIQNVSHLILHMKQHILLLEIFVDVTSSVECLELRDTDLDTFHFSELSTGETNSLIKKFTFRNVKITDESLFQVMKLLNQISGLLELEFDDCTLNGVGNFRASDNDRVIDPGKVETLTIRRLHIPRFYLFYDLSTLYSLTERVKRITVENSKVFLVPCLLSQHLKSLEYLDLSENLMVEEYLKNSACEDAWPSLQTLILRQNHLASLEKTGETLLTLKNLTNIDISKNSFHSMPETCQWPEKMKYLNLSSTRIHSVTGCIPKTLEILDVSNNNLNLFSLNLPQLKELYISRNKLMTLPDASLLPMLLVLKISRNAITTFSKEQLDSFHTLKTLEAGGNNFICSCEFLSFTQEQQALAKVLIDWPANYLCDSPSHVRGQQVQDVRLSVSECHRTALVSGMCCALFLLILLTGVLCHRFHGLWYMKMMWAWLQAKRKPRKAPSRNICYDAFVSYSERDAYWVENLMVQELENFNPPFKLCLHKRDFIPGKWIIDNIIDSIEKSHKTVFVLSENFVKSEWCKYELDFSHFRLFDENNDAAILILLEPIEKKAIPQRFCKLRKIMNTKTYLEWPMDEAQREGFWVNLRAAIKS
Protocol: THP-1 monocyte cells (1×10^5) were stimulated with 200nM of PMA for 48h and treated with different concentrations of test compounds. The TLR2 activity was measured after 24 h from the cell lysate using ELISA.

HUVECs = assay: Cytotoxicity in HUVECs, MTT cell proliferation kit; assay type: cell-based, human; conditions: 100 µM, 24h
Protocol: Selected TLR2/4 antagonist compounds 2, 6, 7, 8, 14, 17 and 32 were evaluated for cytotoxicity in HUVECs at 100 µM concentration. The cells were treated with compounds and incubated for 24h. Cell viability was assessed using MTT cell proliferation kit (Promega). All the compounds were not toxic to HUVECs (FIG. 15).

[3] = test system: hyperoxia induced BPD in mouse pups; assay: Hyperoxia-exposed BPD mouse model (newborn pups); assay type: in vivo
Text: Neonatal mice and humans undergo similar stages of lung development but differ with respect to the duration of each stage and its temporal relationship to gestational age. The lungs of the mouse born at term are in the saccular stage and are surfactant sufficient; this can be considered somewhat akin to a human preterm neonate in the same stage of lung development that has been exposed to a full complement of antenatal steroids (which is known to enhance surfactant production). In terms of mimicking the human condition, the most successful hyperoxia models are those that limit exposure to hyperoxia to the saccular stage of pulmonary development. The mouse BPD model involves exposing newborn mice (postnatal day 1 or PN1) to 100% oxygen till PN4 followed by recovery in room air (RA) for another 10 days.
After the recovery period, their lungs were harvested and processed for quantitative PCR, western blotting, histopathology and ELISA.
After the recovery period, their lungs were harvested and processed for quantitative PCR, western blotting and histopathology and ELISA.
BPD is characterized by large simplified alveoli, inflammation, increased cell death, decreased cell proliferation, dysmorphic capillary configuration, and variable interstitial cellularity and/or fibroproliferation. […] This is determined by measuring the alveolar chord length, septal thickness and radial alveolar count (RAC). In BPD, the alveolar area increases which is characterized by increase in the diameter of the alveolar sacs, the septa become thickened (thus interfering in gaseous exchange) and the RAC, a parameter used to assess the complexity of terminal respiratory unit by pulmonologists, decreases as a result of arrested lung development.

[4] = test system: human peripheral blood monocytes; assay: IL-10 production in human peripheral blood monocytes; assay type: cell-based; conditions: after 48 h
[5] = test system: VEGF induced tube formation in HUVECs; assay: Anti-angiogenic activity, Tube Formation kit, VEGF induced; assay type: cell-based, human; conditions: VEGF 100ng/mL
Protocol: Selected TLR2/4 antagonist compounds 2, 6, 7, 8, 14, 17 and 32 were evaluated for anti-angiogenic activity using the Tube Formation kit (Cat#3470-096-K). VEGF (100ng/mL) was used as positive control. These compounds have potential applications in diseases associated with pathological angiogenesis such as solid tumor, […], diabetic retinopathy as well as AMD.

hPBMC = assay: Cytotoxicity in hPBMC, MTT cell proliferation kit; assay type: cell-based, human; conditions: 0.1, 1.0, 10, 100 and 1000 µM, 24h
Protocol: The cells were treated with compounds and incubated for 24h. Cell viability was assessed using MTT cell proliferation kit (Promega).

[6] = Concentration 75-100 µM, THP-1 cells

Chain of TLR4 (O00206 24-839): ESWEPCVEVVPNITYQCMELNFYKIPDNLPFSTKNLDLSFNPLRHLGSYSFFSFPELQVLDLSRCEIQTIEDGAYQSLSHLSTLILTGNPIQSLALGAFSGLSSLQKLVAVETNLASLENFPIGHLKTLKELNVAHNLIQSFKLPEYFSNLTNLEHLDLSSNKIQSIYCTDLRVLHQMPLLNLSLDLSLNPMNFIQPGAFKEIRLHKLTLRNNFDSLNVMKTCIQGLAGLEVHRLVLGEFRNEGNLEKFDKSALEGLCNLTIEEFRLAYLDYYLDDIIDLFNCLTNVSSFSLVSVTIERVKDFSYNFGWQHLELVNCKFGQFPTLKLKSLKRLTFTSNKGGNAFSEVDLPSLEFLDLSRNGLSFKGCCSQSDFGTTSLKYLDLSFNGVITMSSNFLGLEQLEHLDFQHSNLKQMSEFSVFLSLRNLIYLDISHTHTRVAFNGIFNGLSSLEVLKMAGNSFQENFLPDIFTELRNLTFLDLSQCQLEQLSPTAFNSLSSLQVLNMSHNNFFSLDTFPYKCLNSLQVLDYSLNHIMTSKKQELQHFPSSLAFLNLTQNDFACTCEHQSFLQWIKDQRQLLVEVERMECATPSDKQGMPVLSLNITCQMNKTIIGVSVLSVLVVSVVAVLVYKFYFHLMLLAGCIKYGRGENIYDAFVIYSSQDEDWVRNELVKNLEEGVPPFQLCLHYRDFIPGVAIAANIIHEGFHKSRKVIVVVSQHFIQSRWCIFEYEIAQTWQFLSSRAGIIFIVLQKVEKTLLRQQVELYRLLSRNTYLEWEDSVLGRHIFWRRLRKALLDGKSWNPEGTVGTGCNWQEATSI
Chain of TLR4 (Q9Y6Y9 17-160 partner limits assumed): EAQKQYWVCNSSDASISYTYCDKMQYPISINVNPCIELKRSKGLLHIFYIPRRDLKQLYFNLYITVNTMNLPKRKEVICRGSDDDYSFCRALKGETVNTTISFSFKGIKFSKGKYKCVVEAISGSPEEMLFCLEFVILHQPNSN

SMILES: CC(=O)NC1[C@H](Oc2ccc3c(C)cc(=O)oc3c2)O[C@H](CO)[C@@H](O)[C@@H]1O (single isomer, unassigned) [Compound 29]
- % activation over control TLR4 (TLR4; [6]): + (+ means that the % of inhibition or activation is in the range of 15-25%)
- cytotoxicity in normal lung epithelial cells (AT-1) [1]: not toxic
- IL-1β response [2]: increased
- TNF-α response [2]: increased
- anti-inflammatory cytokine IL-10 [2]: decreased
- % activation over control TLR2 (TLR2; Concentration 1-10 µM): ++ (++ means that the % of inhibition or activation is in the range of 25-75%)
- % activation over control TLR2 (TLR2; Concentration 75-100 µM): + (+ means that the % of inhibition or activation is in the range of 15-25%)

SMILES: CC(=O)NC1[C@H](Oc2ccc(B3OC(C)(C)C(C)(C)O3)cc2)O[C@H](CO)[C@@H](O)[C@@H]1O (single isomer, unassigned) [Compound 32, p-Pinacoloneboronatephenyl 2-acetamido-2-deoxy-β-D-glucopyranoside]
- % inhibition over control TLR4 (TLR4; Concentration 1-10 µM, THP-1 cells): +++ (+++ means that the % of inhibition or activation is in the range of 75-95%)
- % inhibition over control TLR4 (TLR4; [6]): +++ (+++ means that the % of inhibition or activation is in the range of 75-95%)
- TLR4 modulatory activity (TLR4; summary in words): concentration dependent TLR4 modulatory activity
- TLR2/4 antagonist activity (TLR4; summary in words, as shown in Table-1 (FIG. 1), TLR2 and TLR4): potent TLR2/4 antagonists
- cytotoxicity in HUVECs (cell viability) (HUVECs): not toxic
- TLR4 inhibition in vivo ([3]; neonatal pups with BPD): inhibit
- lung architecture ([3]; saline (IV) and nanosuspension (IN) formulation): restored
- IL-10 production ([4]; 0.1-1.0 µM): increase
- IL-10 production ([4]; 10-100 µM): decrease
- VEGF induced tube formation [5]: significantly decreased
- IL-1β response [2]: increased
- TNF-α response [2]: increased
- anti-inflammatory cytokine IL-10 [2]: decreased
- cytotoxicity in hPBMC (cell viability) (hPBMC): not toxic
- % inhibition over control TLR2 (TLR2; Concentration 1-10 µM): +++ (+++ means that the % of inhibition or activation is in the range of 75-95%)
- % inhibition over control TLR2 (TLR2; Concentration 75-100 µM): + (+ means that the % of inhibition or activation is in the range of 15-25%)

SMILES: CC(=O)O[C@H]1C(=O)[C@@]2(C)[C@H]([C@H](OC(=O)c3ccccc3)[C@]3(O)C[C@H](OC(=O)[C@H](O)[C@@H](NC(=O)c4ccccc4)c4ccccc4)C(C)=C1C3(C)C)[C@]1(OC(C)=O)CO[C@@H]1C[C@@H]2O [Taxol, reference compound]
- cytotoxicity in normal lung epithelial cells (AT-1) [1]: toxic
